From patent US20250304576A1 (Cancer Research Technology Limited, priority 2022, published 2025)

Legend:
Recombinant IKKβ = target: T1, Recombinant IKKβ (Homo sapiens, UniProt O14920); assay: DELFIA IKKβ kinase assay (apparent Ki, Cheng-Prusoff); type: biochemical; settings: non-italicised figure: DELFIA assay
T1 construct: purchased Millipore, Dundee, UK
T1 sequence (O14920 1-756): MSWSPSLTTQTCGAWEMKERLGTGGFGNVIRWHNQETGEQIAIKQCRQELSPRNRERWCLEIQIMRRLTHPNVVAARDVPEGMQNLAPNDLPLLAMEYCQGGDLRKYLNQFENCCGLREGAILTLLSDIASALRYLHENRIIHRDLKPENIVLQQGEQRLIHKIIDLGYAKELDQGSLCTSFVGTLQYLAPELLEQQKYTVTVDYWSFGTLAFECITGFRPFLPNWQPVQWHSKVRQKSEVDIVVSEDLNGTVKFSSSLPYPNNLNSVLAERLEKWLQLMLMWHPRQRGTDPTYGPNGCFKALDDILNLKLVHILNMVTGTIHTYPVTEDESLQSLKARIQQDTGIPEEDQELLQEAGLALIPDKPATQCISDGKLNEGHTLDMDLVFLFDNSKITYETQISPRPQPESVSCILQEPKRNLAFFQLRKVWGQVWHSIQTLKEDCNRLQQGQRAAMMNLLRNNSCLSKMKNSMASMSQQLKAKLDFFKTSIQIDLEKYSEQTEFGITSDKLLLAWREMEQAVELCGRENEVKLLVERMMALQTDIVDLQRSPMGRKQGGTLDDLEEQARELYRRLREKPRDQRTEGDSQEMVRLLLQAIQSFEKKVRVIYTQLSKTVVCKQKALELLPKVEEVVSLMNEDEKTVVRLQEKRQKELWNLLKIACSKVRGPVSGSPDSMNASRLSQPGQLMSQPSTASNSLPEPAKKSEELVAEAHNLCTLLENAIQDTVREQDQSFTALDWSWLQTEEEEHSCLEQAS
Protocol: (§1) IKKα and IKKβ inhibitory activity was determined using three different assays: a dissociation enhanced ligand fluorescent immunoassay (DELFIA) based on the protocol of HTScan™ IKKβ Kinase Assay (Cell Signaling Technology, USA); an Adapta IKKα assay (performed by Life Technologies); a Z′-LYTE™ IKKβ assay (performed by Life Technologies).
(§2) Recombinant IKKα or IKKβ, 37 nM, (Millipore, Dundee, UK) was incubated with IηB-α (Ser32) (New England Biolabs, Hitchin, UK) biotinylated peptide substrate (0.375 μM) and 40 μM ATP in assay buffer (40 mM Tris-HCl (pH 7.5), 20 mM MgCl2, EDTA 1 mM, DTT 2 mM and BSA 0.01 mg/ml) in a V-well 96-well plate in the presence and absence of test compound. The assay plate was incubated for 60 minutes at 30° C. after which the kinase reaction was quenched by the addition of 50 mM EDTA, pH8. The resulting mixture was transferred to a streptavidin coated 96-well plate (Perkin Elmer, Beaconsfield, UK) and incubated for 1 hour at 30° C. to immobilise the substrate peptide. After three washes with wash buffer (0.01 M phosphate buffered saline (PBS), 0.05% Tween −20, pH 7.4) a primary antibody against the phosphorylated substrate (phospho-IηB-a) (Ser32/36) (5A5) Mouse mAb (New England Biolabs, Hitchin, UK) (1:1000 dilution with 1% bovine serum albumin (BSA) in wash buffer) was added and incubated at 37° C. for 2 h.
(§3) After a further three washes, a secondary europiated antibody (Eu-N1 labelled anti-mouse IgG, (Perkin Elmer, Beaconsfield, UK) diluted 1:500 in 1% BSA/wash buffer) was added and incubated at 30° C. for 30 minutes. After a further five washes, DELFIA enhancement solution—(Perkin Elmer, Beaconsfield UK) was added and allowed to incubate for 10 min at room temperature, protected from light, to facilitate the chemifluorescent detection. The relative fluorescence units (RFU) signal were measured on a Wallac Victor 1420 multilabel counter (Perkin Elmer, Beaconsfield, UK), in time-resolved fluorescence mode. The counter was set at an excitation wavelength of 340 nm with a 400 μs delay before detecting emitted light at 615 nm. The apparent Ki of the […] was calculated for each compound using the Cheng-Prusoff Equation.
(§4) The IKKα and IKKβ figures quoted in non-italicised form are from the DELFIA assay described above.

Recombinant IKKα = target: T2, Recombinant IKKα (Homo sapiens, UniProt O15111); assay: DELFIA IKKα kinase assay (apparent Ki, Cheng-Prusoff); type: biochemical; settings: non-italicised figure: DELFIA assay
T2 construct: purchased Millipore, Dundee, UK
T2 sequence (O15111 1-745): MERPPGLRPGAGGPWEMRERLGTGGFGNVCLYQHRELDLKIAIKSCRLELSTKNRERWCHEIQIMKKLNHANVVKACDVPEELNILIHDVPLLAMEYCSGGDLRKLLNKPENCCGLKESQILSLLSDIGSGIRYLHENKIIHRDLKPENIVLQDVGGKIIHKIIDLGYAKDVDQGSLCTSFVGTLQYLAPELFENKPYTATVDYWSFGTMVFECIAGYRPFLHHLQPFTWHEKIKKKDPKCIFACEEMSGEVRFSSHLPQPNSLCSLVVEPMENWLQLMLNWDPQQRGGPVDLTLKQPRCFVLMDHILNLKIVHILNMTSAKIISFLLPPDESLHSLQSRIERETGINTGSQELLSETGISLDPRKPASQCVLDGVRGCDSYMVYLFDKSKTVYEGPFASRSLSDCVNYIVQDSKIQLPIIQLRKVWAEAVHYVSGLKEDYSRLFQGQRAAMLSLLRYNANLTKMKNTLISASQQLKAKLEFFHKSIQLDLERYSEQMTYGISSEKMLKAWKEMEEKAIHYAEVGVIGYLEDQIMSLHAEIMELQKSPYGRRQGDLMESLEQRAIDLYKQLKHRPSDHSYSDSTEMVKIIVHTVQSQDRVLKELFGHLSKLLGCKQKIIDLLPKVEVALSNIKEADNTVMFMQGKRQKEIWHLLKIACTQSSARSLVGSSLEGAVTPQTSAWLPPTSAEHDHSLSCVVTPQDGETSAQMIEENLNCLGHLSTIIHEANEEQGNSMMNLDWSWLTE
Protocol: as §1, §2, §3, §4

Row | SMILES | Ki (Recombinant IKKβ) | Ki (Recombinant IKKα)
1 | CCCCCCNc1cc(-c2ccc3[nH]nc(N)c3c2)ccn1 [Example 17, 5-(2-(Hexylamino)pyridine-4-yl)-1H-indazol-3-amine] | 1340 nM | 114 nM
2 | Nc1n[nH]c2ccc(-c3ccnc(NC4CCCCC4)c3)cc12 [Example 18, 5-(2-(Cyclohexylamino)pyridine-4-yl)-1H-indazol-3-amine] | > 10000 nM | 571 nM
3 | C[C@H]1CC[C@H](Nc2cc(-c3ccc4[nH]nc(N)c4c3)ccn2)CC1 [Example 19, 5-{2-[(Trans-4-methylcyclohexyl)amino]pyridin-4-yl}-1H-indazol-3-amine] | > 10000 nM | 170 nM
4 | Nc1n[nH]c2ccc(-c3ccnc(NCCO)c3)cc12 [Example 20, 2-((4-(3-Amino-1H-indazol-5-yl)pyridine-2-yl)amino)ethan-1-ol] | 630 nM | 46 nM
5 | Nc1n[nH]c2ccc(-c3ccnc(NCCCO)c3)cc12 [Example 21, 3-((4-(3-Amino-1H-indazol-5-yl)pyridine-2-yl)amino)propan-1-ol] | 796 nM | 15 nM
6 | Nc1n[nH]c2ccc(-c3ccnc(NCCCCO)c3)cc12 [Example 22, 4-(4-(3-Amino-1H-indazol-5-yl)pyridin-2-ylamino)butan-1-ol] | 1470 nM | 22 nM
7 | Nc1n[nH]c2ccc(-c3ccnc(NCCCCCO)c3)cc12 [Example 23] | 335 nM | 33 nM
8 | Nc1n[nH]c2ccc(-c3ccnc(N[C@H]4CC[C@H](O)CC4)c3)cc12 [Example 24, 5-{2-[(Trans-4-hydroxycyclohexyl)amino]pyridin-4-yl}-1H-indazol-3-amine] | > 10000 nM | 100 nM
9 | COCCNc1cc(-c2ccc3[nH]nc(N)c3c2)ccn1 [Example 25, 5-(2-((2-Methoxyethyl)amino)pyridine-4-yl)-1H-indazol-3-amine] | > 10000 nM | 221 nM
10 | COCCCNc1cc(-c2ccc3[nH]nc(N)c3c2)ccn1 [Example 26, 5-(2-((3-Methoxypropyl)amino)pyridine-4-yl)-1H-indazol-3-amine] | 754 nM | 34 nM
11 | CC(C)OCCCNc1cc(-c2ccc3[nH]nc(N)c3c2)ccn1 [Example 27, 5-(2-((3-Isopropoxypropyl)amino)pyridin-4-yl)-1H-indazol-3-amine] | 2510 nM | 76 nM
12 | Nc1n[nH]c2ccc(-c3ccnc(NCCCO)n3)cc12 [Example 28, 3-((4-(3-Amino-1H-indazol-5-yl)pyrimidin-2-yl)amino)propan-1-ol] | 460 nM | 65 nM
13 | CN(CCCO)c1cc(-c2ccc3[nH]nc(N)c3c2)ccn1 [Example 29, 3-((4-(3-Amino-1H-indazol-5-yl)pyridin-2-yl)(methyl)amino)propan-1-ol] | > 10000 nM | 1900 nM
14 | Nc1n[nH]c2ccc(-c3ccnc(NCCN4CCOCC4)c3)cc12 [Example 30, 5-(2-((2-Morpholinoethyl)amino)pyridine-4-yl)-1H-indazol-3-amine] | 377 nM | 340 nM
15 | Nc1n[nH]c2ccc(-c3ccnc(NCCN4CCCCC4)c3)cc12 [Example 31, 5-(2-((2-(Piperidin-1-yl)ethyl)amino)pyridine-4-yl)-1H-indazol-3-amine] | > 10000 nM | 495 nM
16 | CNCCCNc1cc(-c2ccc3[nH]nc(N)c3c2)ccn1 [Example 32, N^1-(4-(3-Amino-1H-indazol-5-yl)pyridin-2-yl)-N^3-methylpropane-1,3-diamine] | > 10000 nM | 340 nM
17 | Nc1n[nH]c2ccc(-c3ccnc(NC(=O)C4CC4)c3)cc12 [Example 33, N-[4-(3-Amino-1H-indazol-5-yl)pyridin-2-yl]cyclopropanecarboxamide] | 159 nM | 76 nM
18 | Nc1n[nH]c2ccc(-c3ccnc(NC(=O)c4ccccc4)c3)cc12 [Example 34, N-(4-(3-Amino-1H-indazol-5-yl)pyridin-2-yl)benzamide] | 350 nM | 26 nM
19 | CCOC(=O)Nc1cc(-c2ccc3[nH]nc(N)c3c2)ccn1 [Example 35, Ethyl (4-(3-amino-1H-indazol-5-yl)pyridin-2-yl)carbamate] | 470 nM | 15 nM
20 | CCNC(=O)Nc1cc(-c2ccc3[nH]nc(N)c3c2)ccn1 [Example 36, 1-(4-(3-Amino-1H-indazol-5-yl)pyridine-2-yl)-3-ethylurea] | 838 nM | 20 nM
21 | CCCNC(=O)Nc1cc(-c2ccc3[nH]nc(N)c3c2)ccn1 [Example 37, 1-(4-(3-Amino-1H-indazol-5-yl)pyridin-2-yl)-3-propylurea] | 4100 nM | 70 nM
22 | CC(C)CCNC(=O)Nc1cc(-c2ccc3[nH]nc(N)c3c2)ccn1 [Example 38, 1-(4-(3-Amino-1H-indazol-5-yl)pyridin-2-yl)-3-isopentylurea] | 4200 nM | 100 nM
23 | Nc1n[nH]c2ccc(-c3ccnc(NC(=O)NC4CCCC4)c3)cc12 [Example 39, 1-(4-(3-Amino-1H-indazol-5-yl)pyridin-2-yl)-3-cyclopentylurea] | 970 nM | 114 nM
24 | Nc1n[nH]c2ccc(-c3ccnc(NC(=O)NC4CCCCC4)c3)cc12 [Example 40, 1-(4-(3-Amino-1H-indazol-5-yl)pyridin-2-yl)-3-cyclohexylurea] | > 10000 nM | 228 nM
25 | Nc1n[nH]c2ccc(-c3ccnc(NC(=O)NCCO)c3)cc12 [Example 41, 1-(4-(3-Amino-1H-indazol-5-yl)pyridin-2-yl)-3-(2-hydroxyethyl)urea] | 754 nM | 21 nM
26 | Nc1n[nH]c2ccc(-c3ccnc(NC(=O)NCCCO)c3)cc12 [Example 42, 1-(4-(3-Amino-1H-indazol-5-yl)pyridin-2-yl)-3-(3-hydroxypropyl)urea] | 670 nM | 114 nM
27 | COCCNC(=O)Nc1cc(-c2ccc3[nH]nc(N)c3c2)ccn1 [Example 43, 1-(4-(3-Amino-1H-indazol-5-yl)pyridin-2-yl)-3-(2-methoxyethyl)urea] | 1590 nM | 76 nM
28 | CN(CCO)C(=O)Nc1cc(-c2ccc3[nH]nc(N)c3c2)ccn1 [Example 44, 3-(4-(3-Amino-1H-indazol-5-yl)pyridin-2-yl)-1-(2-hydroxyethyl)-1-methylurea] | > 10000 nM | 418 nM
